Literature values, collected in patent US20200215051A1, “NEBULIZATION COMPOSITION COMPRISING TIOTROPIUM AND INDACATEROL” (GLENMARK SPECIALTY S.A., priority 2019, published 2020).

Conditions: water

- aqueous solubility: very slightly soluble in water
Compound: CCc1cc2c(cc1CC)CC(NC[C@H](O)c1ccc(O)c3[nH]c(=O)ccc13)C2 [Indacaterol, 5-[(1R)-2-[(5,6-diethyl-2,3-dihydro-1H-inden-2-yl)amino]-1-hydroxyethyl]-8-hydroxy-1H-quinolin-2-one]
